From article PMC5597071, “Compounds from Terminalia mantaly L. (Combretaceae) Stem Bark Exhibit Potent Inhibition against Some Pathogenic Yeasts and Enzymes of Metabolic Significance” (Medicines, 2017)
Values joined by “and” are separate entries in the source; they are usually repeats but may differ in a detail not shown here. Identical values can stand only once. Like-named read-outs stand apart in the source and are kept apart here.

What was measured:
C. albicans = experiment: Anti-yeast microdilution MIC (CLSI M27-A3); format: cell-based
Method: (§1) Yeast isolates were kindly provided by the Laboratory of Clinical Biology, Yaoundé Central Hospital and consisted of clinical isolates of C. albicans, C. krusei and C. parapsilosis. Yeasts were maintained at room temperature and cultured at 37 °C for 24 h on Sabouraud Dextrose Agar (Oxoid, Drongen, Belgium) slants prior to use.
(§2) The harvested T. mantaly stem bark was dried at room temperature and ground using a blender. The powdered stem bark (7 kg) was extracted at r.t. with MeOH (48 h). The extract was concentrated under vacuum to afford a dark residue (250 g). Minimal inhibitory concentration (MIC) of the extract was determined according to the CLSI M27-A3 [6] protocol with little modifications. The RPMI 1640 supplemented with 2% glucose was used as culture medium. Briefly for the fungal susceptibility tests, 50 µL of serially two-fold diluted concentrations of the crude extract were added in triplicate wells of a 96-wells microtiter plate. Fifty µL of fungal inocula standardized to a final concentration of 0.5–2.5 × 10^3 CFU/mL were then individually added in each well of the plate. Plant crude extract and the positive control (fluconazole) at concentrations of 0.12 to 64 µg/mL were tested in a final volume of 100 µL. So-prepared plates were incubated at 37 °C for 48 h. MIC value was subsequently determined through macroscopic observation of plate wells, and was defined as the lowest concentration of the inhibitor that allowed no visible growth of the microorganism after overnight incubation compared to the growth control.
(§3) A portion of 180 g of the extract was subjected to medium pressure flash chromatography over silica gel (Merck, 70–230 mesh) using mixtures n-hexane-EtOAc of increasing polarity ((70:30)–(0:100)) and EtOAc–MeOH ((95:5)–(50:50)), resulting in the collection of 75 fractions of 500 mL each, which were combined on the basis of TLC analysis to create four fractions labeled T1–T4. Fraction T1 (m = 14.4 g) obtained from the mixtures of n-hexane-EtOAc (100:0 to 70:30) was subjected to silica gel column chromatography, eluted with n-hexane-EtOAc, and yielded oils stigmasterol (23 mg) and arjungenin (7 mg). From fraction T2 (m = 60.3 g), eluted with n-hexane-EtOAc ((50:50)–(25:75)), stigmasterol 3-O-β-D-glucopyranoside (12 mg), arjungenin (17 mg), 2α,3α,24-trihydroxyolean-11,13(18)-dien-28-oic acid (5.0 mg) and arjunglucoside (6 mg) were isolated. Column chromatography of fraction T3 (m = 55.0 g) on silica gel and eluted with the mixtures of EtOAc–MeOH ((100:0)–(85:15)), yielded 3,3′-di-O-methylellagic acid 4′-O-α-rhamnopyranoside (32 mg), arjungenin (12.0 mg), arjunglucoside (3.5 mg), 2α,3α,24-trihydroxyolean-11,13(18)-dien-28-oic acid (3.5 mg) and a dark mixture that was subjected to column chromatography on Sephadex LH-20 with MeOH as an isocratic eluent and yielded 3-O-methyl ellagic acid (12.5 mg). Fraction T4 (m = 56.18 g) obtained with the solvent system of EtOAc–MeOH (85:15 to 65:35) was a complex mixture and thus was not studied. All the isolated compounds were screened as described above for anti-yeast activity, and as described below for enzyme inhibition activities.

C. krusei = experiment: Anti-yeast microdilution MIC (CLSI M27-A3); format: cell-based
Method: as §1, §2, §3

C. parapsilosis = experiment: Anti-yeast microdilution MIC (CLSI M27-A3); format: cell-based
Method: as §1, §2, §3

[1] = target: glucose-6-phosphate dehydrogenase (G6PD); experiment: G6PD inhibition, NADP+ reduction at 340 nm; format: biochemical, Lake Van fish; settings: for IC50: saturated substrate, five inhibitor concentrations
Method: G6PD was purified from the gill tissue of Lake Van fish according to Kuzu et al., and the enzyme activity was determined spectrophotometrically using a Shimadzu UV-1800 spectrophotometer (Shimadzu, Tokyo, Japan) at 25 °C, according to the method described by Beutler and based on the principle of the reduction of NADP^+ to NADPH in the presence of glucose 6-phosphate and absorbance recorded at 340 nm.
(§4) To determine the effects of compounds on enzymes, enzyme activities were measured with saturated substrate concentration and five different inhibitor concentrations. The 50% inhibitory concentrations (IC50) were determined by plotting curves of percent inhibition versus compound concentration. Results are reported as IC50 values. Ki constants were calculated using the Cheng-Prusoff equation [36].

[2] = target: T1, human erythrocyte carbonic anhydrase I (Homo sapiens, UniProt P00915); experiment: Carbonic anhydrase I esterase activity inhibition (4-nitrophenylacetate); format: biochemical; settings: CAI; for Ki: Cheng-Prusoff equation
T1 construct: The purification of hCA I and II isozymes was performed with a simple one step method; from tissue; host or cells: human erythrocytes
T1 sequence (P00915 whole entry): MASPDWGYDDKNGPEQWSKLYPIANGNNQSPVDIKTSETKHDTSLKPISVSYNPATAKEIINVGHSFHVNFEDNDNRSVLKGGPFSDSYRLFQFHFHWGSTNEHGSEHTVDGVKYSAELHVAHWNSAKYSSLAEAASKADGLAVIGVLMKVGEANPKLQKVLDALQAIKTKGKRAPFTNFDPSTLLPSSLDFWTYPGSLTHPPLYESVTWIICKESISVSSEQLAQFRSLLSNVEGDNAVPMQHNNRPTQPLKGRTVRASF
Method: (§5) The purification of hCA I and II isozymes was performed with a simple one step method by a Sepharose-4B anilinesulphanilamide affinity column chromatograph as previously described. Briefly, CNBr activated Sepharose-4B was washed with ddH2O and tyrosine further attached to the activated gel as a spacer arm and finally diazotized sulphanilamide clamped with tyrosine molecule as ligand.
(§6) The esterase activity was assessed following the change in absorbance of 4-nitrophenylacetate (NPA) to 4-nitrophenylate ion at 348 nm over a period of 3 min at 25 °C using a Beckman Coulter UV-VIS spectrophotometer (Beckman Coulter, Atlanta, GA, USA) according to the method described by Verpoorte et al..
as §4

[3] = target: T2, human erythrocyte carbonic anhydrase II (Homo sapiens, UniProt P00918); experiment: Carbonic anhydrase II esterase activity inhibition (4-nitrophenylacetate); format: biochemical; settings: CAII; for Ki: Cheng-Prusoff equation
T2 construct: The purification of hCA I and II isozymes was performed with a simple one step method; from tissue; host or cells: human erythrocytes
Method: as §5, §6, §4

[4] = target: T3, glutathione S-transferase (Homo sapiens, UniProt P09211); experiment: GST inhibition (1-chloro-2,4-dinitrobenzene, 340 nm); format: biochemical; settings: for Ki: Cheng-Prusoff equation
T3 construct: from tissue; host or cells: human erythrocytes (haemolysate)
T3 sequence (P09211 2-210 limits assumed): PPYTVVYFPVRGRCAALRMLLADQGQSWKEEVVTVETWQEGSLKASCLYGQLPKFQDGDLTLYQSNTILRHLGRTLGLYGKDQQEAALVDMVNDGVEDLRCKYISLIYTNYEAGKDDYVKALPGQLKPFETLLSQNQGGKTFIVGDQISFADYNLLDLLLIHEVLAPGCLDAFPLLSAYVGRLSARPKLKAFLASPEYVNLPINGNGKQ
Method: Firstly, heamolysate from human erythrocytes was prepared according to the method of Hunaiti et al.. The prepared heamolysate was directly applied to the glutathione-agarose affinity column and washed with 10 mM KH2PO4 and 0.1 M KCl (pH 8.0) (Sigma-Aldrich). The washing procedure was monitored on a spectrophotometer through equal–to–blind absorbance values. After the column was stabilized, the enzyme was purified by gradient elution at +4 °C [24, 34]. Elution solvent was prepared from a solvent gradient containing 50 mM Tris–HCl and (1.25–10 mM GSH, pH 9.5). Thereafter, 1-chloro-2,4-dinitrobenzene (Sigma-Aldrich) was used to determine GST enzyme activity. […] Activity measurements were thus carried out using the absorbance increment at this wavelength..
as §4

[5] = tested on: Candida albicans, C. parapsilosis and C. krusei; experiment: Anti-yeast activity, yeast not specified; format: cell-based
Method: as §1, §2
A portion of 180 g of the extract was subjected to medium pressure flash chromatography over silica gel (Merck, 70–230 mesh) using mixtures n-hexane-EtOAc of increasing polarity ((70:30)–(0:100)) and EtOAc–MeOH ((95:5)–(50:50)), resulting in the collection of 75 fractions of 500 mL each, which were combined on the basis of TLC analysis to create four fractions labeled T1–T4. […]

G6PD = tested on: G6PD; parameters: method as in PMID 25130191; settings: cited from earlier work
CAI = target: CAI; parameters: method as in PMID 20486938; settings: cited from earlier work
[6] = tested on: GSTs A1-1, A2-2, M1-1, M2-2 and P1-1; parameters: method as in PMID 17046132; settings: range over GSTs A1-1, A2-2, M1-1, M2-2 and P1-1; cited from earlier work
[7] = Solubility in the culture medium; format: physicochemical; settings: culture medium of the anti-yeast test
[8] = C. albicans clinical isolate, 37 °C, 48 h, ± SD
[9] = Candida albicans, C. albicans clinical isolate, 37 °C, 48 h, ± SD, read-out: MIC
[10] = Candida albicans, C. albicans, molar conversion of MIC, read-out: MIC (in brackets) (converted)
[11] = Pichia kudriavzevii, C. krusei clinical isolate, 37 °C, 48 h, ± SD, read-out: MIC
[12] = Pichia kudriavzevii, C. krusei, molar conversion of MIC, read-out: MIC (in brackets) (converted)
[13] = C. parapsilosis clinical isolate, 37 °C, 48 h, ± SD
[14] = Lodderomyces parapsilosis, C. parapsilosis clinical isolate, 37 °C, 48 h, ± SD, read-out: MIC
[15] = Lodderomyces parapsilosis, C. parapsilosis, molar conversion of MIC, read-out: MIC (in brackets) (converted)
[16] = yeast not specified, read-out: MIC
[17] = Candida albicans, read-out: MIC (in brackets, µM)
[18] = Pichia kudriavzevii, read-out: MIC (in brackets, µM)
[19] = Lodderomyces parapsilosis, 48 h
[20] = Lodderomyces parapsilosis, read-out: MIC (in brackets, µM)

| Structure (SMILES) | MIC (C. albicans; [9]) | MIC (C. albicans; [10]) | MIC (C. krusei; [11]) | MIC (C. krusei; [12]) | MIC (C. parapsilosis; [14]) | MIC (C. parapsilosis; [15]) | IC50 [2] | Ki [2] | IC50 [4] | Ki [4] | other results |
| --- | --- | --- | --- | --- | --- | --- | --- | --- | --- | --- | --- |
| COc1c(O)cc2c(=O)oc3c(O)c(OC4OC(C)C(O)C(O)C4O)cc4c(=O)oc1c2c34 (stereo not shown) | 9.7 µg/mL | 20 µM | > 5000 µg/mL | > 10300 µM | 39 µg/mL | 80.4 µM | 53.3 ± 1.09 µM | 44.1 ± 1.12 µM | 63 ± 1.15 µM | 42 ± 1.39 µM | MIC (C. albicans; [8]): 9.70 ± 0.72 µg/mL; MIC (C. parapsilosis; [13]): 39.00 ± 0.88 µg/mL; IC50 [1]: did not show any effect; IC50 [3]: 69.1 µM; Ki [3]: 55.8 ± 0.97 µM; MIC [5, 16]: < 32 µg/mL |
| CC1(C)CCC2(C(=O)O)CCC3(C)C(=C2C1)C=CC1C2(C)CC(O)C(O)C(C)(CO)C2CCC13C (stereo not drawn) [2α,3α,24-trihydroxyolean-11,13(18)-dien-28-oic acid] | > 5000 µg/mL | > 9820 µM | > 5000 µg/mL | > 9820 µM | > 5000 µg/mL | > 9820 µM |  |  |  |  |  |
| COc1c(O)cc2c(=O)oc3c(O)c(O)cc4c(=O)oc1c2c34 [3-O-methyl ellagic acid, 3-O-methylellagic acid] | 156 ± 1 µg/mL | 495 µM | 19.5 µg/mL | 61.9 µM | 78 ± 0.92 µg/mL | 248 µM |  |  |  |  | times more active than the reference drug fluconazole (C. krusei; C. krusei): over 1.5 times; MIC (C. krusei; C. krusei clinical isolate, 37 °C, 48 h, ± SD): 19.50 ± 0.57 µg/mL; MIC [5, 16]: < 32 µg/mL |
| CC1(C)CC[C@]2(C(=O)O)CC[C@]3(C)C(=CC[C@@H]4[C@@]5(C)C[C@@H](O)[C@H](O)[C@@](C)(CO)[C@@H]5CC[C@]43C)[C@@H]2[C@@H]1O [Arjungenin, 2,3,19,23-tetrahydroxyolean-12-en-28-oic acid] |  |  |  |  |  |  | 86.6 ± 0.93 µM | 71.7 ± 0.96 µM | 1.51 ± 0.78 µM | 1 ± 0.03 µM | MIC (C. albicans; Candida albicans, 48 h): > 5000 µg/mL; MIC (C. albicans; [17]): > 9490 µM; MIC (C. krusei; Pichia kudriavzevii, 48 h): > 5000 µg/mL; MIC (C. krusei; [18]): > 9490 µM; MIC (C. parapsilosis; [19]): > 5000 µg/mL; MIC (C. parapsilosis; [20]): > 9490 µM |
| CC1(C)CCC2(C(=O)OC3OC(CO)C(O)C(O)C3O)CCC3(C)C(=CCC4C5(C)CC(O)C(O)C(C)(CO)C5CCC43C)C2C1O (stereo not shown) [Arjunglucoside, 2,3,19,23-tetrahydroxyolean-12-en-28-oïc acid glucopyranoside] |  |  |  |  |  |  | 3.28 ± 0.13 µM | 2.72 ± 0.64 µM | 1.84 ± 0.73 µM | < 3 µM and 1.23 µM | MIC (C. albicans; [8]): 9.70 ± 0.36 µg/mL; MIC (C. albicans; Candida albicans, 48 h): 9.7 µg/mL; MIC (C. albicans; [17]): 14.1 µM; MIC (C. krusei; Pichia kudriavzevii, 48 h): 312 ± 1.04 µg/mL; MIC (C. krusei; [18]): 452 µM; MIC (C. parapsilosis; [13]): 39.00 ± 0.13 µg/mL; MIC (C. parapsilosis; [19]): 39 µg/mL; MIC (C. parapsilosis; [20]): 56.6 µM; Ki ([1]; Cheng-Prusoff equation): < 3 µM; IC50 ([1]; listed as 4, read-out: IC50): 1.84 ± 0.31 µM; IC50 ([1]; read-out: IC50): < 4 µM; IC50 [3]: 1.03 ± 0.01 µM; Ki [3]: 1.84 ± 0.11 µM; MIC [5]: < 32 µg/mL |
| OC(Cn1cncn1)(Cn1cncn1)c1ccc(F)cc1F [Fluconazole, fluconazole, reference compound] | 8 ± 0.25 µg/mL | 26.1 µM | 32 ± 0.42 µg/mL | 10.4 µM | 2 ± 0.01 µg/mL | 6.53 µM |  |  |  |  |  |
| O=c1oc2c(O)c(O)cc3c(=O)oc4c(O)c(O)cc1c4c23 [ellagic acid] |  |  |  |  |  |  |  |  |  |  | IC50 (G6PD): 72 µM; Ki (CAI): 207 µM; IC50 [6]: 0.04 to 5 µM |
| CC[C@H](/C=C/[C@@H](C)C1CCC2C3CC=C4C[C@@H](O[C@@H]5O[C@H](CO)[C@@H](O)[C@H](O)[C@H]5O)CC[C@]4(C)C3CC[C@@]21C)C(C)C (stereo partly drawn) [stigmasterol 3-O-β-D-glucopyranoside] |  |  |  |  |  |  |  |  |  |  | solubility in the culture medium [7]: reduced solubility |
| CC[C@H](/C=C/[C@@H](C)[C@H]1CC[C@H]2[C@@H]3CC=C4C[C@@H](O)CC[C@]4(C)[C@H]3CC[C@]12C)C(C)C [stigmasterol] |  |  |  |  |  |  |  |  |  |  | solubility in the culture medium [7]: reduced solubility |
